± gives the expanded uncertainty stated by the source.
Tests used:
[1] = for mass density: 298.15 K, 101.33 kPa, Liquid, Vibrating tube method
[2] = refractive index (Na D-line) (dimensionless); conditions: 298.15 K; 101.33 kPa; Liquid; Standard Abbe refractometry

Compound	Normal melting temperature ([1]; Crystal)	mass density [1]	refractive index [2]
CN1C(=O)N(C)C2C1N(C)C(=O)N2C (stereo unspecified) [1,3,4,6-tetramethylglycoluril]	228 ± 4 °C		
CC(=O)N(C)C [N,N-dimethylethanamide]		936.5 ± 0.1 kg/m3	1.436 ± 0.0007
CNC=O [N-methylformamide]		998.92 ± 0.3 kg/m3	1.4308 ± 0.0008
CC(C)=O [acetone]		784.65 ± 0.16 kg/m3	1.3563 ± 0.0007
CN(C)C=O [dimethylformamide]		943.93 ± 0.13 kg/m3	1.4276 ± 0.0007
NC=O [formamide]		1129.15 ± 0.2 kg/m3	1.4465 ± 0.0007
